{"source": "paper PMC7265429", "about": "“Characterization of a new small-molecule inhibitor of HDAC6 in glioblastoma” (Cell Death & Disease, 2020)", "system": "GNS166 cells", "assay": "Microarray whole-transcriptome gene expression analysis", "type": "cell-based, human", "conditions": "5 µM SAHA vs DMSO", "description": "Whole-transcriptome analysis was performed from 300 ng of RNA using HuGene-2_0-st-v1 expression array (Affymetrix), which covers 48,226 transcripts. Raw data were first checked for quality purposes through the Affymetrix® Expression Console™ Software v1.4.1 and TAC software v4.0. Then, data were normalized using the Robust Multi-array Average (RMA) and analyzed by Limma tool. Probesets with FDR-corrected p-values smaller than 0.05 were selected. Functional enrichment on Gene Ontology (GO) biological processes was performed on a smaller subset of the differentially expressed genes (corrected p-value < 0.001) by means of Broad Institute GSEA. […] The data that support this study have been deposited in NCBI´s Gene Expression Omnibus and are accessible through GEO series accession number GSE143887."}
{"smiles": "O=C(CCCCCCC(=O)Nc1ccccc1)NO", "note": "[SAHA, Suberoylanilide hydroxamic acid]", "values": [{"measurement": "logFC, unannotated transcript", "setting": "transcript 23067838", "result": 2.48}, {"measurement": "logFC, unannotated transcript", "setting": "transcript 23070274", "result": 1.496}, {"measurement": "logFC, unannotated transcript", "setting": "transcript 23074046", "result": 2.262}, {"measurement": "logFC, unannotated transcript", "setting": "transcript 23076255", "result": 1.316}, {"measurement": "logFC, unannotated transcript", "setting": "transcript 23076621", "result": 1.363}, {"measurement": "logFC CLCN4", "setting": "transcript TC0X00006593.hg.1", "result": 1.5774}, {"measurement": "logFC GRPR", "setting": "transcript TC0X00006686.hg.1", "result": 2.105}, {"measurement": "logFC CNKSR2", "setting": "transcript TC0X00006758.hg.1", "result": 1.439}, {"measurement": "logFC TCEAL2", "setting": "transcript TC0X00007965.hg.1", "result": 1.805}, {"measurement": "logFC CXorf57", "setting": "transcript TC0X00008052.hg.1", "result": 2.567}, {"measurement": "logFC RNF128", "setting": "transcript TC0X00008054.hg.1", "result": 2.588}, {"measurement": "logFC TBC1D8B", "setting": "transcript TC0X00008055.hg.1", "result": 1.963}, {"measurement": "logFC BCORL1", "setting": "transcript TC0X00008394.hg.1", "result": 1.89}, {"measurement": "logFC SPANXB1", "setting": "transcript TC0X00008599.hg.1", "result": 3.183}, {"measurement": "logFC SPANXA2", "setting": "transcript TC0X00008608.hg.1", "result": 1.528}, {"measurement": "logFC GABRQ", "setting": "transcript TC0X00008747.hg.1", "result": 2.318}, {"measurement": "logFC SPRY3", "setting": "transcript TC0X00008881.hg.1", "result": 1.925}, {"measurement": "logFC ANOS1", "setting": "transcript TC0X00009025.hg.1", "result": 2.202}, {"measurement": "logFC TMEM47", "setting": "transcript TC0X00009356.hg.1", "result": 2.2}, {"measurement": "logFC SYN1", "setting": "transcript TC0X00009576.hg.1", "result": 1.838}, {"measurement": "logFC SLC7A3", "setting": "transcript TC0X00009972.hg.1", "result": 2.306}, {"measurement": "logFC PCDH19", "setting": "transcript TC0X00010326.hg.1", "result": 2.715}, {"measurement": "logFC GPC3", "setting": "transcript TC0X00010851.hg.1", "result": 3.405}, {"measurement": "logFC SPANXC", "setting": "transcript TC0X00010990.hg.1", "result": 2.79}, {"measurement": "logFC TSPAN7", "setting": "transcript TC0X00011279.hg.1", "result": 3.632}, {"measurement": "logFC SPANXD", "setting": "transcript TC0X00011403.hg.1", "result": 2.719}, {"measurement": "logFC SPRY3", "setting": "transcript TC0Y00006855.hg.1", "result": 1.925}, {"measurement": "logFC AZIN2", "setting": "transcript TC0100007705.hg.1", "result": 2.1884}, {"measurement": "logFC SGIP1", "setting": "transcript TC0100008631.hg.1", "result": 2.667}, {"measurement": "logFC WDR63", "setting": "transcript TC0100008897.hg.1", "result": 2.0565}, {"measurement": "logFC PLPPR4", "setting": "transcript TC0100009181.hg.1", "result": 3.131}, {"measurement": "logFC RIIAD1", "setting": "transcript TC0100009969.hg.1", "result": 1.761}, {"measurement": "logFC RGS4", "setting": "transcript TC0100010393.hg.1", "result": 2.615}, {"measurement": "logFC RGL1", "setting": "transcript TC0100010874.hg.1", "result": 1.6746}, {"measurement": "logFC HMCN1", "setting": "transcript TC0100010921.hg.1", "result": 2.357}, {"measurement": "logFC PLA2G4A", "setting": "transcript TC0100010939.hg.1", "result": 2.146}, {"measurement": "logFC NFASC", "setting": "transcript TC0100011316.hg.1", "result": 2.226}, {"measurement": "logFC SYT14", "setting": "transcript TC0100011463.hg.1", "result": 1.552}, {"measurement": "logFC PADI2", "setting": "transcript TC0100013076.hg.1", "result": 2.104}, {"measurement": "logFC RAB3B", "setting": "transcript TC0100014191.hg.1", "result": 2.825}, {"measurement": "logFC EXTL2", "setting": "transcript TC0100015079.hg.1", "result": 1.8773}, {"measurement": "logFC TXNIP", "setting": "transcript TC0100015598.hg.1", "result": 1.6929}, {"measurement": "logFC TDRKH", "setting": "transcript TC0100015803.hg.1", "result": 1.45}, {"measurement": "logFC CRABP2", "setting": "transcript TC0100016018.hg.1", "result": 2.073}, {"measurement": "logFC TNFSF18", "setting": "transcript TC0100016427.hg.1", "result": 2.171}, {"measurement": "logFC NMNAT2", "setting": "transcript TC0100016649.hg.1", "result": 2.678}, {"measurement": "logFC KCNT2", "setting": "transcript TC0100016822.hg.1", "result": 1.691}, {"measurement": "logFC SUSD4", "setting": "transcript TC0100017446.hg.1", "result": 2.012}, {"measurement": "logFC CHML", "setting": "transcript TC0100017948.hg.1", "result": 2.064}, {"measurement": "logFC EFNA3", "setting": "transcript TC0100018303.hg.1", "result": 2.427}, {"measurement": "logFC CREG1", "setting": "transcript TC0100018528.hg.1", "result": 1.58}, {"measurement": "logFC ATP6V1C2", "setting": "transcript TC0200006703.hg.1", "result": 1.305}, {"measurement": "logFC DPYSL5", "setting": "transcript TC0200007047.hg.1", "result": 2.839}, {"measurement": "logFC CHAC2", "setting": "transcript TC0200007590.hg.1", "result": 1.314}, {"measurement": "logFC MERTK", "setting": "transcript TC0200008894.hg.1", "result": 2.244}, {"measurement": "logFC B3GALT1", "setting": "transcript TC0200009889.hg.1", "result": 2.683}, {"measurement": "logFC FAM171B", "setting": "transcript TC0200010219.hg.1", "result": 2.2716}, {"measurement": "logFC MAP2", "setting": "transcript TC0200010636.hg.1", "result": 3.414}, {"measurement": "logFC BCL11A", "setting": "transcript TC0200012713.hg.1", "result": 2.328}, {"measurement": "logFC PAIP2B", "setting": "transcript TC0200013021.hg.1", "result": 1.841}, {"measurement": "logFC KCNH7", "setting": "transcript TC0200014775.hg.1", "result": 2.8124}, {"measurement": "logFC SCN9A", "setting": "transcript TC0200014819.hg.1", "result": 2.356}, {"measurement": "logFC LRP2", "setting": "transcript TC0200014851.hg.1", "result": 2.542}, {"measurement": "logFC FKBP7", "setting": "transcript TC0200015082.hg.1", "result": 2.583}, {"measurement": "logFC CALCRL", "setting": "transcript TC0200015193.hg.1", "result": 2.705}, {"measurement": "logFC SLC40A1", "setting": "transcript TC0200015211.hg.1", "result": 1.178}, {"measurement": "logFC MSTN", "setting": "transcript TC0200015221.hg.1", "result": 1.434}, {"measurement": "logFC STAT4", "setting": "transcript TC0200015246.hg.1", "result": 1.771}, {"measurement": "logFC EPHA4", "setting": "transcript TC0200015815.hg.1", "result": 1.855}, {"measurement": "logFC ITPR1", "setting": "transcript TC0300006477.hg.1", "result": 1.259}, {"measurement": "logFC GRAMD1C", "setting": "transcript TC0300008371.hg.1", "result": 3.533}, {"measurement": "logFC STXBP5L", "setting": "transcript TC0300008524.hg.1", "result": 1.686}, {"measurement": "logFC TMEM108", "setting": "transcript TC0300008853.hg.1", "result": 1.4353}, {"measurement": "logFC PLS1", "setting": "transcript TC0300009033.hg.1", "result": 1.34}, {"measurement": "logFC MLF1", "setting": "transcript TC0300009310.hg.1", "result": 1.587}, {"measurement": "logFC SERPINI1", "setting": "transcript TC0300009412.hg.1", "result": 3.206}, {"measurement": "logFC GPR160", "setting": "transcript TC0300009459.hg.1", "result": 1.716}, {"measurement": "logFC VGLL3", "setting": "transcript TC0300011706.hg.1", "result": 1.982}, {"measurement": "logFC IGSF11", "setting": "transcript TC0300012109.hg.1", "result": 2.1969}, {"measurement": "logFC SLITRK3", "setting": "transcript TC0300013022.hg.1", "result": 1.701}, {"measurement": "logFC LAMP3", "setting": "transcript TC0300013336.hg.1", "result": 2.279}, {"measurement": "logFC CLDN1", "setting": "transcript TC0300013520.hg.1", "result": 1.599}, {"measurement": "logFC CEP19", "setting": "transcript TC0300013719.hg.1", "result": 1.62}, {"measurement": "logFC IFT80", "setting": "transcript TC0300014074.hg.1", "result": 1.3192}, {"measurement": "logFC CCDC39", "setting": "transcript TC0300014078.hg.1", "result": 2.854}, {"measurement": "logFC WDR19", "setting": "transcript TC0400007280.hg.1", "result": 1.361}, {"measurement": "logFC GABRB1", "setting": "transcript TC0400007419.hg.1", "result": 2.377}, {"measurement": "logFC CYP2U1", "setting": "transcript TC0400008347.hg.1", "result": 1.641}]}
